Laboratory results: patent US12559750B2, “Methods and compositions for treatment of polycystic kidney disease” (Regulus Therapeutics Inc., priority 2021, dated 2026)

Assays:
AMPA-R = assay: [3H]AMPA radioligand binding assay on rat brain synaptic membranes;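 note: competition binding in which test compounds at rising concentrations displace [3H]AMPA from AMPA-R on rat brain synaptic membranes, with reduced bound radioligand as read-out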
Experimental: The activity of anti-miR-17 compounds was evaluated in a radioligand binding assay which measured the binding of the [^3H] AMPA ligand to the AMPA-R present on rat brain synaptic membranes, in the presence of increasing concentrations of anti-miR-17 compound, anti-miR-17 compounds with affinity for the AMPA-R will bind to and compete with the binding of the [^3H] AMPA ligand.
5.0 nM of the ligand [^3H] AMPA, 1.0 mM of the non-specific ligand L-Glutamic acid, and anti-miR compound at uM concentrations were incubated with synaptic membranes prepared from Wistar rat cerebral cortex for 90 minutes.
The compounds were tested in the radioligand binding assay described herein, to determine the ability of the anti-miR-17 compounds to and compete with the binding of the [3H] AMPA ligand.

AMPA-R (GluA1/GluA4) = molecular target: T1, AMPA-R (GluA1/GluA4) (Homo sapiens, UniProt P42261+P48058); assay: Manual whole-cell patch clamp, ChanTest GluA1/GluA4 EZCells; type: cell-based
T1 construct: host or cells: ChanTest GluA1/GluA4 EZCells
Experimental: To evaluate functional antagonism of anti-miR-17 oligonucleotides towards the AMPA-R, certain oligonucleotides were tested using the manual whole-cell patch clamp technique, which records membrane currents as a measure of AMPA-R activity.
Manual whole-cell patch clamp studies were performed by Metrion Biosciences (Cambridge, UK). Whole-cell voltage clamp experiments were performed at room temperature (18-21° C.) using an EPC10 patch clamp amplifier using Patchmaster software (HEKA Elektronik). Glass patch pipettes were fabricated from borosilicate glass capillaries (Harvard Apparatus) to resistances between 1.4 and 2.5 MΩ. Membrane currents were recorded using the whole-cell patch clamp technique. ChanTest® GluA1/GluA4 EZCells were clamped at a holding potential of −80 mV and membrane currents elicited by 10 μM(S)-AMPA delivered using a VC38 perfusion system (ALA Scientific Instruments). The […] current amplitude values were measured with each application of 10 μM(S)-AMPA. The fractional change of current amplitude produced by each concentration of compound was calculated relative to the control current (pre-compound) and expressed as percentage change (% inhibition) for each cell. RGLS4326 was tested in a separate study from all other compounds in Table 6.

C57Bl/6J male mice = assay: ICV maximum tolerated dose study, Study 1; type: in vivo, mouse; settings: for Mortality/total number of mice: 7-day
Experimental: Compounds (RG-NG-1017, RGLS4326, RG-NG-1001) were evaluated in a pilot maximum tolerated dose (MTD) study (discussed below). RG-NG-1017, RGLS4326 and RG-NG-1001 were initially evaluated at 4 dose-levels each. RG-NG-1017 was included for evaluation as a non-AMPA-R binding compound, as compared to RGLS4326 and RG-NG-1001, which bind AMPA-R. C57Bl/6J male mice (Jackson Laboratories), age 6-7 weeks, were used in this study. Mice were assigned randomly to treatment groups, and the study was blinded. Animals were allowed to acclimate for no less than 5 days and housed on a 12 hr light/dark cycle (lights on 7:00 AM). No more than 4 mice were house in each cage in a ventilated cage rack system. The diet consisted of standard rodent chow and water ad libitum.
The following parameters were used for this study: • 1. Route(s) of administration: intracerebroventricular (ICV) dosing of RG-NG-1017, RG-NG-1001, RGLS4326 • 2. Dose Volume(s): 4 μL • 3. Formulation(s): vehicle, Ca^2+ and Mg^2+ free dPBS • 4. Dose Frequency: Once • 5. Study duration: 8 Days • 6. Number of Groups: 3 • 7. Number of animals per group: (2-4 each group) • 8. Total number of animals: […]
For the ICV administration, mice were anesthetized and positioned for injections. The skin over the skull was incised, and a small hole was made in the skull above the target using a microdrill. The stereotactic coordinates were anteroposterior (AP), −0.4 mm; mediolateral (ML), +/−1.0-1.5 mm; dorsoventral (DV), −3.0 mm from the bregma for injection into both the right and left lateral cerebral ventricles (Hironaka et al, 2015). Animals were injected unilaterally with 4 μl into the right lateral cerebral ventricle. Compounds were injected over 1-2 min, and the needle was left in place for 0.5-1 min prior to withdrawal. The incision was closed with sutures, wound clips, or VetBond.
Following ICV treatment (Day 0), animals were monitored for 7 days in which daily health checks, body weight, and mortality was recorded. On Day 7, brain and kidney were collected and fixed (10% formalin) and stored pending histology.

miR-17 [1] = assay: miR-17 luciferase sensor assay in HeLa cells; type: cell-based
Experimental: The in vitro potency of certain compounds was evaluated using a miR-17 luciferase sensor assay which uses a luciferase reporter vector for miR-17, with two fully complementary miR-17 binding sites in tandem in the 3′-UTR of the luciferase gene. HeLa cells were co-transfected with the luciferase reporter vector and an exogenous miR-17-expression vector that acted to repress the luciferase signal.

miR-17 [2] = assay: miR-17 PD-Sig in mouse kidney cell lines; type: cell-based
Experimental: The activity of certain compounds was evaluated using a mouse miR-17 Pharmacodynamic-Signature (miR-17 PD-Sig), which consists of the expression of 18 unique miR-17 target genes normalized by six reference housekeeping genes, to provide an unbiased and comprehensive assessment of miR-17 activity. The mouse miR-17 PD-Sig score was the calculated average of the 18 genes' individual log 2 fold changes (normalized by six housekeeping genes) compared to mock transfection (Lee et al., Nat. Commun., 2019, 10, 4148).
The PD-Sig for RGLS4326 in mIMCD3 cells (77.2, indicated by “*”) was not generated in this experiment; the value in Table 14 is that reported by Lee et al., Nat. Commun., 2019, 10, 4148. Blank cells in the table indicate that a compound was not tested in a particular cell line.

miR-17 [3] = assay: miR-17 PD-Sig in human kidney cell lines; type: cell-based
miR-17 [4] = assay: microRNA polysome shift assay (miPSA) in kidney of wild type mice; type: in vivo, mouse; set-up: scale not given here; settings: seven days later
Experimental: In vivo potency was evaluated using the microRNA polysome shift assay (miPSA). This assay was used to determine the extent to which compounds directly engage the miR-17 target in the kidney in normal and PKD mice. The miPSA relies on the principle that active miRNAs bind to their mRNA targets in translationally active high molecular weight (HMW) polysomes, whereas the inhibited miRNAs reside in the low MW (LMW) polysomes. Treatment with anti-miR results in a shift of the microRNA from HMW polysomes to LMW polysomes. Thus, the miPSA provides a direct measurement of microRNA target engagement by a complementary anti-miR (Androsavich et al., Nucleic Acids Research, 2015, 44: e13).
Wild type mice were administered a single dose of 0.3 mg/kg, 3 mg/kg, or 30 mg/kg. Kidney tissue was collected seven days later and subjected to the miPSA. The mean displacement score for each treatment is shown in Table 15 (PBS, n=17; RGLS4326 30 mg/kg, n=10; all other treatments, n=4-5). The tested oligonucleotides displaced miR-17 from translationally active polysome (as measured by miPSA) in normal mouse kidneys.

mice = settings: in vivo
Experimental: Each compound was tested in a single dose at 2000 mg/kg, and at escalating doses (100, 450, and 2000 mg/kg).

T1 sequence (P42261 19-906): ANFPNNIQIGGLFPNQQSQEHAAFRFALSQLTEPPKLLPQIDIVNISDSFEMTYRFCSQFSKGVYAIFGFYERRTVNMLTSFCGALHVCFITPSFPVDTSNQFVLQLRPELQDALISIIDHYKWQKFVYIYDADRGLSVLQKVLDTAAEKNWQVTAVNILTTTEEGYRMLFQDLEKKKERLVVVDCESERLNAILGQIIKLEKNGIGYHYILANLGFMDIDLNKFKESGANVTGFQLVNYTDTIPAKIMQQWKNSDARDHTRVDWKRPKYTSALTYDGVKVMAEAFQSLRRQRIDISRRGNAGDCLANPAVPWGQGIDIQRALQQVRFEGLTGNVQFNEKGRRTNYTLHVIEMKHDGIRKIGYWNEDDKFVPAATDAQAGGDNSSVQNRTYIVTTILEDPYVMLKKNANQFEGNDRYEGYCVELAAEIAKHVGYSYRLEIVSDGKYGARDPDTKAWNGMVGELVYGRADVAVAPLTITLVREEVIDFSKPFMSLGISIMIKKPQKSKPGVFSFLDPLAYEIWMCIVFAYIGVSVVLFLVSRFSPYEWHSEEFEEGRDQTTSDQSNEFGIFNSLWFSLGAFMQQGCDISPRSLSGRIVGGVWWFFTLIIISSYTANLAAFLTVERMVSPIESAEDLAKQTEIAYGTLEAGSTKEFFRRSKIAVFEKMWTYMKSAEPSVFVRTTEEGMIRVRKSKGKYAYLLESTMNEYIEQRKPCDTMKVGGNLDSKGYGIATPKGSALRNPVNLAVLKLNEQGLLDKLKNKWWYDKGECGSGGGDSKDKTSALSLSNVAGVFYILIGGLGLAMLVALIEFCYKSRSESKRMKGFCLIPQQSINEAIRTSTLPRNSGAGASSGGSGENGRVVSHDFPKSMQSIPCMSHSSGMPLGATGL
T1 sequence (P48058 21-902): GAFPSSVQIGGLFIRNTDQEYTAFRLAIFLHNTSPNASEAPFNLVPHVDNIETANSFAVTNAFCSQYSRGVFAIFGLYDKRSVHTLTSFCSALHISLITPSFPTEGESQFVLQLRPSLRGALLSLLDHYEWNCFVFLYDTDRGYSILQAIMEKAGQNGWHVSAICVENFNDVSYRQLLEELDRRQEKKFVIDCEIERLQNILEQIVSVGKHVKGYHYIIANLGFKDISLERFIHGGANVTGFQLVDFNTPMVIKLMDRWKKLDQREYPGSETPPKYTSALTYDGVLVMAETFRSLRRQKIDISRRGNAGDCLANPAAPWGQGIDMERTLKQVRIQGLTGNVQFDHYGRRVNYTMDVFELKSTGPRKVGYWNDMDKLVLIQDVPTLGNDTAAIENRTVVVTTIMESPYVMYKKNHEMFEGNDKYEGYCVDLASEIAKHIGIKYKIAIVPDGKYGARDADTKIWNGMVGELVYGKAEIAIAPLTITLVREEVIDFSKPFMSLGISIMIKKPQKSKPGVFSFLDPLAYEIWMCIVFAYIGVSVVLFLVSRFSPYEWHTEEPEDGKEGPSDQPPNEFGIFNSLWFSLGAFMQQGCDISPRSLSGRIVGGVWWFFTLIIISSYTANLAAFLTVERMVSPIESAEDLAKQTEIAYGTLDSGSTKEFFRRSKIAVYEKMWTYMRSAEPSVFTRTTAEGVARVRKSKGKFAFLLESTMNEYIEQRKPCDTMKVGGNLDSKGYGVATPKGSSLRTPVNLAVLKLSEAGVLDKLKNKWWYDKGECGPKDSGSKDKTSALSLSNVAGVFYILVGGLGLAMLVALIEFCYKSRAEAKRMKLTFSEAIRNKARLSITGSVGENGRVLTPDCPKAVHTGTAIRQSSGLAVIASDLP

ASGSCMAFCFUFUMUSUS [RG-NG-1017]
IC50 (AMPA-R; Experiment #2): > 100 µM | % Inhibition @ 0.1 uM (AMPA-R; Experiment #2, 0.1 uM): 0.2% | % Inhibition @ 1 uM (AMPA-R; Experiment #2, 1 uM): −1.3% | % Inhibition @ 10 uM (AMPA-R; Experiment #2, 10 uM): 4.3% | % Inhibition @ 100 uM (AMPA-R; Experiment #2, 100 uM): 8.1% | % Inhibition on membrane currents evoked with 10 uM (s)-AMPA (Mean ± SD) (AMPA-R (GluA1/GluA4); 0.3 uM compound): 20.0 ± 6.3% | % Inhibition on membrane currents evoked with 10 uM (s)-AMPA (Mean ± SD) (AMPA-R (GluA1/GluA4); 3 uM compound): 28.2 ± 5.5% | functional antagonism towards AMPA-R relative to RGLS4326 (AMPA-R (GluA1/GluA4); in words): reduced functional antagonism towards AMPA-R | MTD higher than that of RGLS4326 (C57Bl/6J male mice; single ICV): > 40 fold | Mortality/total number of mice (C57Bl/6J male mice; single ICV 50 μg): 0/2 | Mortality/total number of mice (C57Bl/6J male mice; single ICV 100 μg): 0/2 | Mortality/total number of mice (C57Bl/6J male mice; single ICV 300 μg): 1/2 | Mortality/total number of mice (C57Bl/6J male mice; single ICV 600 μg): 0/2 | MTD (C57Bl/6J male mice; single ICV, C57Bl/6J mice, predicted from the study): no established MTD | Log2FC (37.5 nM) (miR-17 [1]; 37.5 nM): 2.67 | EC50 (miR-17 [1]; HeLa cells, 18- to 24-hour transfection): 15 nM | EC50 (miR-17 [2]; D52B5, mouse, PKD): 74.1 nM | EC50 (miR-17 [2]; mIMCD3, mouse, Normal): 134 nM | EC50 (miR-17 [3]; HK-2, human, Normal): 49.2 nM | EC50 (miR-17 [3]; WT9-7, human, PKD): 20.1 nM | miPSA Displacement Score, Mean (miR-17 [4]; single dose 3 mg/kg): 2.292 | miPSA Displacement Score, Mean (miR-17 [4]; single dose 30 mg/kg): 2.793 | miPSA Displacement Score, Mean (miR-17 [4]; single dose 0.3 m/kg): 2.077 | CNS toxicity in high-dose mouse toxicity studies (mice): no CNS-toxicity were observed | CNS-related findings noted (mice; mouse, sc, 2000 mg/kg): No
